Laboratory results as given in publication PMC6599250, “Functional diversity of inhibitors tackling the differentiation blockage of MLL-rearranged leukemia” (Journal of Hematology & Oncology, 2019).
Read-outs that look alike come from different tables or passages of the source.

How the values were obtained:
OCI-AML-3 (MLL-WT) cells = test: Cell proliferation (alamarBlue) OCI-AML-3; format: cell-based; details: Homo sapiens, OCI-AML-3, OCI-AML-3 (MLL-WT), read-out: IC50 proliferation
Method: (§1) Cells were seeded in the optimal growth medium at 4000–5000 cells/well in a 96 MTP and cultured 18–24 h before inhibitor treatment.

RS4;11 (MLL-AF4) cells = test: Cell proliferation (alamarBlue) RS4;11; format: cell-based; details: Homo sapiens, RS4-11, RS4;11 (MLL-AF4), read-out: IC50 proliferation
Method: as §1

Jurkat (MLL-WT) cells = test: Cell proliferation (alamarBlue) Jurkat; format: cell-based; details: Homo sapiens, Jurkat (MLL-WT)
Method: as §1

[1] = tested on: MV4-11, MOLM-13 and HL-60 cells; test: Cell cycle analysis (PI, flow cytometry); format: cell-based; details: 4 days of treatment (Figure S2)
Method: Cells were washed with PBS and fixed overnight at − 20 °C with 70% ethanol. Fixed cells were stained with PI solution (Sigma-Aldrich St. Louis, MO, USA) solution containing RNase A (Qiagen, Hilden, Germany). Fluorescence was measured with FACS Canto II (BD Biosciences, Heidelberg, Germany) flow cytometer and data was analyzed with FACSDiva software.

[2] = tested on: MV4-11, MOLM-13 and HL-60 cells; test: Cell proliferation, all three tested AML cell lines; format: cell-based; details: 96 h; all tested cell lines (MV4-11, MOLM-13, HL-60), 4 days of treatment (Fig. 1a); read-out: anti-proliferation IC50s
Method: (§2) Cells were seeded in the optimal growth medium at 4000–5000 cells/well in a 96 MTP and cultured 18–24 h before inhibitor treatment. Upon treatment with the indicated inhibitor, cells were cultured for 24 h, 96 h, and 168 h and effects on proliferation were determined using alamarBlue Cell Viability Reagent (Thermo Fisher Scientific, Waltham, MA, USA).

MOLM-13 (MLL-AF9) cells = test: Cell proliferation (alamarBlue) MOLM-13; format: cell-based; details: Homo sapiens, MOLM-13, MOLM-13 (MLL-AF9), read-out: IC50 proliferation
Method: as §1

[3] = tested on: MYC, PCNA, and MCL-1 levels; design: method as in earlier work; details: initial pharmacodynamics data analysis; cited from earlier work
ML-2 (MLL-AF6) cells = test: Cell proliferation (alamarBlue) ML-2; format: cell-based; details: ML-2 (MLL-AF6), read-out: IC50 proliferation
Method: as §1

MV4-11 (MLL-AF4) cells = test: Cell proliferation (alamarBlue) MV4-11; format: cell-based; details: Homo sapiens, MV4-11, MV4-11 (MLL-AF4), read-out: IC50 proliferation
Method: as §1

HL-60 cells = test: CD11b protein expression by flow cytometry, HL-60; format: cell-based; details: non-fused HL-60 cell line, 4 and 7 days of treatment
Method in brief: (§3)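 Cells seeded 24 h before inhibitor treatment lasting 4 or 7 days. Then stained with CD11b-APC plus DAPI, or AnnexinV-FITC plus PI, and analysed by flow cytometry.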

KOPN-8 (MLL-ENL) cells = test: Cell proliferation (alamarBlue) KOPN-8; format: cell-based; details: Homo sapiens, KOPN-8, KOPN-8 (MLL-ENL), read-out: IC50 proliferation
Method: as §1

SEM (MLL-AF4) cells = test: Cell proliferation (alamarBlue) SEM; format: cell-based; details: SEM (MLL-AF4), read-out: IC50 proliferation
Method: as §1

[4] = tested on: OCI-AML-2 (MLL-AF9) cells; test: Cell proliferation (alamarBlue) OCI-AML-2; format: cell-based; details: Homo sapiens, OCI-AML2, OCI-AML-2 (MLL-AF9), read-out: IC50 proliferation
Method: as §1

OCI-AML-5 (MLL-WT) cells = test: Cell proliferation (alamarBlue) OCI-AML-5; format: cell-based; details: Homo sapiens, OCI-AML-5, OCI-AML-5 (MLL-WT), read-out: IC50 proliferation
Method: as §1

EOL-1 (MLL-TD) cells = test: Cell proliferation (alamarBlue) EOL-1; format: cell-based; details: Homo sapiens, EOL1, EOL-1 (MLL-TD), read-out: IC50 proliferation
Method: as §1

NOMO-1 (MLL-AF9) cells = test: Cell proliferation (alamarBlue) NOMO-1; format: cell-based; details: Homo sapiens, NOMO-1, NOMO-1 (MLL-AF9), read-out: IC50 proliferation
Method: as §1

HL-60 (MLL-WT) cells = test: Cell proliferation (alamarBlue) HL-60; format: cell-based; details: for IC50: Homo sapiens, HL-60 (MLL-WT), read-out: IC50 proliferation
Method: as §1

MOLM-14 (MLL-AF9) cells = test: Cell proliferation (alamarBlue) MOLM-14; format: cell-based; details: Homo sapiens, MOLM-14, MOLM-14 (MLL-AF9), read-out: IC50 proliferation
Method: as §1

[5] = tested on: MLL-fused cell lines (MV4-11, MOLM-13); test: CD11b protein expression by flow cytometry, MLL-fused lines; format: cell-based; details: 4 and 7 days of treatment
Method in brief: as §3

[6] = tested on: selected MLL-fused models; test: Cell proliferation, AML/ALL panel; format: cell-based; details: specifically in selected MLL-fused models (Fig. 2a); read-out: proliferation IC50 (significant effects)
Method: as §1

[7] = tested on: MLL-fused cell lines (MV4-11, MOLM-13); test: Cell proliferation, MLL-fused cell lines; format: cell-based; details: 4 days of treatment (Fig. 1a), DMSO = 100%
Method: as §2

[8] = D1, read-out: IC50 proliferation
[9] = D4, read-out: IC50 proliferation
[10] = D7, read-out: IC50 proliferation
[11] = 168 h, 7 days of treatment (D7)

Work on `COc1cc(F)ccc1-c1cc(Nc2cc(CS(C)(=N)=O)ccn2)ncc1F` (stereo not shown) [BAY 1251152] yielded an IC50 (OCI-AML-3 (MLL-WT) cells; D1) of 90 nM, an IC50 (OCI-AML-3 (MLL-WT) cells; D4) of 110 nM and an IC50 (OCI-AML-3 (MLL-WT) cells; D7) of 180 nM. It also gave an IC50 (RS4;11 (MLL-AF4) cells; D1) of 110 nM, an IC50 (RS4;11 (MLL-AF4) cells; D4) of 90 nM and an IC50 (RS4;11 (MLL-AF4) cells; D7) of 90 nM. It also gave an IC50 (Jurkat (MLL-WT) cells; [8]) of 140 nM, an IC50 (Jurkat (MLL-WT) cells; [9]) of 30 nM and an IC50 (Jurkat (MLL-WT) cells; [10]) of 30 nM. For the same molecule, the “cell cycle effect” value [1] was “decrease of cells in S and G2/M phase with increasing concentrations”, the IC50 [2] was 30 to 140 nM and the IC50 (MOLM-13 (MLL-AF9) cells; D1) was 70 nM. The IC50 (MOLM-13 (MLL-AF9) cells; D4) was 60 nM, the IC50 (MOLM-13 (MLL-AF9) cells; D7) was 70 nM and the “pharmacodynamics in phase I” value [3] was “dose-dependent reduction of MYC, PCNA, and MCL-1 levels”. For the same molecule, the IC50 (ML-2 (MLL-AF6) cells; D1) was 110 nM, the IC50 (ML-2 (MLL-AF6) cells; D4) was 200 nM and the IC50 (ML-2 (MLL-AF6) cells; D7) was 230 nM. For the same molecule, the IC50 (MV4-11 (MLL-AF4) cells; D1) was 230 nM, the IC50 (MV4-11 (MLL-AF4) cells; D4) was 70 nM and the IC50 (MV4-11 (MLL-AF4) cells; D7) was 220 nM. The “CD11b level” value (HL-60 cells) was “treatment did”, the IC50 (KOPN-8 (MLL-ENL) cells; D1) was 160 nM and the IC50 (KOPN-8 (MLL-ENL) cells; D4) was 120 nM. It also gave an IC50 (KOPN-8 (MLL-ENL) cells; D7) of 210 nM, an IC50 (SEM (MLL-AF4) cells; D1) of 260 nM and an IC50 (SEM (MLL-AF4) cells; D4) of 90 nM. The IC50 (SEM (MLL-AF4) cells; D7) was 200 nM, the IC50 ([4]; D1) was 70 nM and the IC50 ([4]; D4) was 110 nM. For the same molecule, the IC50 ([4]; D7) was 70 nM, the IC50 (OCI-AML-5 (MLL-WT) cells; D1) was 160 nM and the IC50 (OCI-AML-5 (MLL-WT) cells; D4) was 50 nM. The IC50 (OCI-AML-5 (MLL-WT) cells; D7) was 30 nM, the IC50 (EOL-1 (MLL-TD) cells; D1) was 70 nM and the IC50 (EOL-1 (MLL-TD) cells; D4) was 30 nM. The IC50 (EOL-1 (MLL-TD) cells; D7) was 60 nM, the IC50 (NOMO-1 (MLL-AF9) cells; D1) was 240 nM and the IC50 (NOMO-1 (MLL-AF9) cells; D4) was 60 nM. The IC50 (NOMO-1 (MLL-AF9) cells; D7) was 100 nM, the IC50 (HL-60 (MLL-WT) cells; 24 h, 1 day of treatment (D1)) was 140 nM and the IC50 (HL-60 (MLL-WT) cells; 96 h, 4 days of treatment (D4)) was 110 nM. For the same molecule, the IC50 (HL-60 (MLL-WT) cells; [11]) was 240 nM, the IC50 (MOLM-14 (MLL-AF9) cells; D1) was 40 nM and the IC50 (MOLM-14 (MLL-AF9) cells; D4) was 40 nM. The IC50 (MOLM-14 (MLL-AF9) cells; D7) was 70 nM.

With `CC(C)N(C[C@H]1O[C@@H](n2cnc3c(N)ncnc32)[C@H](O)[C@@H]1O)[C@H]1C[C@@H](CCc2nc3cc(C(C)(C)C)ccc3[nH]2)C1` [EPZ-5676] the IC50 (OCI-AML-3 (MLL-WT) cells; D1) was over 10000 nM, the IC50 (OCI-AML-3 (MLL-WT) cells; D4) was over 10000 nM and the IC50 (OCI-AML-3 (MLL-WT) cells; D7) was over 10000 nM. It also gave an IC50 (RS4;11 (MLL-AF4) cells; D1) of over 10000 nM, an IC50 (RS4;11 (MLL-AF4) cells; D4) of over 10000 nM and an IC50 (RS4;11 (MLL-AF4) cells; D7) of over 10000 nM. It also gave an IC50 (Jurkat (MLL-WT) cells; [8]) of over 10000 nM, an IC50 (Jurkat (MLL-WT) cells; [9]) of over 10000 nM and an IC50 (Jurkat (MLL-WT) cells; [10]) of over 10000 nM. The “cell cycle effect” value [1] was “decrease of cells in S and G2/M phase with increasing concentrations”, the IC50 (MOLM-13 (MLL-AF9) cells; D1) was over 10000 nM and the IC50 (MOLM-13 (MLL-AF9) cells; D4) was over 10000 nM. It also gave an IC50 (MOLM-13 (MLL-AF9) cells; D7) of 6570 nM, an IC50 (ML-2 (MLL-AF6) cells; D1) of over 10000 nM and an IC50 (ML-2 (MLL-AF6) cells; D4) of over 10000 nM. The IC50 (ML-2 (MLL-AF6) cells; D7) was over 10000 nM, the IC50 (MV4-11 (MLL-AF4) cells; D1) was over 10000 nM and the IC50 (MV4-11 (MLL-AF4) cells; D4) was 250 nM. For the same molecule, the IC50 (MV4-11 (MLL-AF4) cells; D7) was 280 nM, the “CD11b level” value (HL-60 cells) was “did not increase CD11b level” and the IC50 (KOPN-8 (MLL-ENL) cells; D1) was over 10000 nM. It also gave an IC50 (KOPN-8 (MLL-ENL) cells; D4) of over 10000 nM, an IC50 (KOPN-8 (MLL-ENL) cells; D7) of over 10000 nM and an IC50 (SEM (MLL-AF4) cells; D1) of over 10000 nM. The IC50 (SEM (MLL-AF4) cells; D4) was over 10000 nM, the IC50 (SEM (MLL-AF4) cells; D7) was over 10000 nM and the “CD11b protein level” value [5] was “increased CD11b protein level in a dose and time-dependent manner”. It also gave an IC50 ([4]; D1) of over 10000 nM, an IC50 ([4]; D4) of over 10000 nM and an IC50 ([4]; D7) of over 10000 nM. For the same molecule, the IC50 (OCI-AML-5 (MLL-WT) cells; D1) was over 10000 nM, the IC50 (OCI-AML-5 (MLL-WT) cells; D4) was over 10000 nM and the IC50 (OCI-AML-5 (MLL-WT) cells; D7) was over 10000 nM. The IC50 (EOL-1 (MLL-TD) cells; D1) was over 10000 nM, the IC50 (EOL-1 (MLL-TD) cells; D4) was over 10000 nM and the IC50 (EOL-1 (MLL-TD) cells; D7) was 120 nM. For the same molecule, the IC50 (NOMO-1 (MLL-AF9) cells; D1) was over 10000 nM, the IC50 (NOMO-1 (MLL-AF9) cells; D4) was over 10000 nM and the IC50 (NOMO-1 (MLL-AF9) cells; D7) was 150 nM. The “anti-proliferation effect in non-fused HL-60” value (HL-60 (MLL-WT) cells; HL-60, 4 days of treatment (Fig. 1a)) was “no significant effects”, the IC50 (HL-60 (MLL-WT) cells; 24 h, 1 day of treatment (D1)) was over 10000 nM and the IC50 (HL-60 (MLL-WT) cells; 96 h, 4 days of treatment (D4)) was over 10000 nM. For the same molecule, the IC50 (HL-60 (MLL-WT) cells; [11]) was over 10000 nM, the IC50 [6] was under 1000 nM and the “proliferation inhibited to” value [7] was 40–50%. It also gave an IC50 (MOLM-14 (MLL-AF9) cells; D1) of over 10000 nM, an IC50 (MOLM-14 (MLL-AF9) cells; D4) of 140 nM and an IC50 (MOLM-14 (MLL-AF9) cells; D7) of 120 nM.
